Source: PubChem BioAssay (NCI)
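Test compounds were applied to cells in 96-well plates for 48 hours at 5 doses. GI50 marks 50% less growth. TGI marks complete inhibition of growth.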

Tests used:
Test in all cases: NCI-60 cell line screen, 48 h
A498 renal = system: A498 renal
ACHN renal = system: ACHN renal
HOP-62 NSCLC = system: HOP-62 NSCLC
KM12 colon = system: KM12 colon
M14 melanoma = system: M14 melanoma
MCF7 breast = system: MCF7 breast
MDA-MB-231 breast = system: MDA-MB-231 breast
NCI/ADR-RES ovarian = system: NCI/ADR-RES ovarian
OVCAR-5 ovarian = system: OVCAR-5 ovarian
TK-10 renal = system: TK-10 renal

Compound	TGI (A498 renal) [µM]	TGI (ACHN renal) [µM]	TGI (HOP-62 NSCLC) [µM]	TGI (KM12 colon) [µM]	TGI (M14 melanoma) [µM]	TGI (MCF7 breast) [µM]	TGI (MDA-MB-231 breast) [µM]	TGI (NCI/ADR-RES ovarian) [µM]	TGI (OVCAR-5 ovarian) [µM]	TGI (TK-10 renal) [µM]	GI50 (M14 melanoma) [µM]
c1ccc(C(NC2=NCCO2)c2ccccc2)cc1	> 10	> 10	> 10	> 10	> 10	> 10	> 10	> 10	> 10	> 10	–
O=C(O)CCc1nc2ccccc2[nH]1	> 100	> 100	> 100	> 100	> 100	> 100	> 100	> 100	> 100	> 100	–
OCCCNc1ncnc2[nH]ncc12	> 100	> 100	> 100	> 100	> 100	> 100	> 100	> 100	> 100	> 100	–
CCOC(=O)C(Cc1cn(C(C)=O)c2ccccc12)P(=O)(OCC)OCC (configuration not stated)	–	> 100	> 100	–	> 100	–	> 100	> 100	> 100	> 100	–
C/C(=N\NC(=S)NCCCCNC(=S)N/N=C(\C)c1ccccn1)c1ccccc1	15	> 24	6	> 100	–	–	> 52.7	3.86	> 85.6	40.6	–
Cc1[nH]c(=O)[nH]c(=O)c1/C=C/C(=O)NC(CO)CS(=O)Cc1ccccc1 (configuration not stated)	> 300	–	> 300	> 300	–	> 300	–	> 300	> 300	–	–
CC(C)C(=O)CC(c1ccc(Cl)cc1)N1N=C(C(C)C)CC1c1ccc(Cl)cc1 (configuration not stated)	–	> 100	> 100	> 100	> 100	–	–	–	–	> 100	54.5
